Source: ChEMBL document CHEMBL4043081, “Do spiroindolines have the potential to replace vesamicol as lead compound for the development of radioligands targeting the vesicular acetylcholine transporter?” (Bioorg Med Chem, 2017)
Activity calls are given as the source filed them. The calls are words filed in the database; no cut-off is given here.

Key:
[1] = target: T1, Sigma intracellular receptor 2 (Rattus norvegicus, UniProt Q5U3Y7); test: Displacement of [3H]pentazocine from sigma2 receptor in Sprague-Dawley rat liver membranes incubated for 120 mins by liquid scintillation counting; type: cell membranes, Membrane
T1 sequence (Q5U3Y7 whole entry): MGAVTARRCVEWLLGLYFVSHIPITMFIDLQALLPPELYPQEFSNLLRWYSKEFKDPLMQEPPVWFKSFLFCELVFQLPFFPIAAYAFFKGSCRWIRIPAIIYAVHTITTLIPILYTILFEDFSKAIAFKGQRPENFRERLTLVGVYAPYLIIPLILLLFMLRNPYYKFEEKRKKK

[2] = target: T2, Vesicular acetylcholine transporter (Rattus norvegicus, UniProt Q62666); test: Displacement of [3H]vesamicol from rat VAChT expressed in rat PC12 cell membranes incubated for 120 mins by liquid scintillation counting
T2 sequence (Q62666 whole entry): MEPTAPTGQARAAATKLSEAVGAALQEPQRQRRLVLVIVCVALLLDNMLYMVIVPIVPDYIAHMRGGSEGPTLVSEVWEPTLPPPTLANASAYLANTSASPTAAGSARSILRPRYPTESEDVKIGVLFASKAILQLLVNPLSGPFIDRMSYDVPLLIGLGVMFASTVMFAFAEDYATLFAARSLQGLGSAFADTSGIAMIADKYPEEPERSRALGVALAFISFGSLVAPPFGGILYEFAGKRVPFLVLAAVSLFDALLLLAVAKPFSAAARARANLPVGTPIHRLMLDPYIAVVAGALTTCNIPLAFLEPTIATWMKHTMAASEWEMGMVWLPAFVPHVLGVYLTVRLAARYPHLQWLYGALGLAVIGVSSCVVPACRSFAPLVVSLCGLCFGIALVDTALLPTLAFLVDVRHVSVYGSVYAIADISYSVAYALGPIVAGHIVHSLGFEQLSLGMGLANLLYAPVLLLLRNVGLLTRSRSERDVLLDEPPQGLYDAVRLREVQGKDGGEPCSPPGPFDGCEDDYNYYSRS

[3] = target: Sigma non-opioid intracellular receptor 1 (Rattus norvegicus, UniProt Q9R0C9); test: Displacement of [3H]pentazocine from sigma1 receptor in Sprague-Dawley rat cortex membranes incubated for 120 mins by liquid scintillation counting; type: cell membranes
Sequence of Sigma non-opioid intracellular receptor 1 (Q9R0C9 whole entry): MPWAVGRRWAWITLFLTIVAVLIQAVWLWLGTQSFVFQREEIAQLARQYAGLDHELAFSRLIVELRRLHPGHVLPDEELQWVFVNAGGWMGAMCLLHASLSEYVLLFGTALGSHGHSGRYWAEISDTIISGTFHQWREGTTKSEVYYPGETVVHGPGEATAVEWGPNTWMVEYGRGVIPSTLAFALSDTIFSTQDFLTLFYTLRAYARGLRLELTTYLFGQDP

[4] = target: T3, Vesicular acetylcholine transporter (Rattus norvegicus) (UniProt Q62666); test: Binding affinity to rat VAChT expressed in rat PC12 cell membranes assessed as induction of rightward shift of vesamicol binding curves at 100 and 100 nM incubated for 120 mins by liquid scintillation counting based [3H]vesamicol binding assay
T3 sequence (whole entry): T2 sequence (Q62666 whole entry)

Row | SMILES | Ki [1] | Ki [2] | Ki [3] | Activity [4]
1 | O=C(c1ccc(F)cc1)N1CC2(CCN(C/C=C/c3ccc(Cl)cc3)CC2)c2cc(F)ccc21 | 1.2 µM | 0.243 µM | 0.293 µM | –
2 | O=C(OCCF)N1CC2(CCN(C/C=C/c3ccc(Cl)cc3)CC2)c2cc(F)ccc21 | 1.52 µM | 0.328 µM | 0.0441 µM | –
3 | O=C(c1ccnc(Cl)c1)N1CC2(CCN(C/C=C/c3ccc(Cl)cc3)CC2)c2cc(F)ccc21 | 1.19 µM | 0.153 µM | 0.137 µM | Active
4 | O=C(c1ccc(Br)nc1)N1CC2(CCN(C/C=C/c3ccc(Cl)cc3)CC2)c2cc(F)ccc21 | 0.0601 µM | 0.0392 µM | 0.179 µM | –
5 | O=C(c1ccnc(F)c1)N1CC2(CCN(C/C=C/c3ccc(Cl)cc3)CC2)c2cc(F)ccc21 | 0.748 µM | 0.11 µM | 0.0554 µM | –
6 | O=C(c1ccc(F)nc1)N1CC2(CCN(C/C=C/c3ccc(Cl)cc3)CC2)c2cc(F)ccc21 | > 10 µM | 0.376 µM | 0.282 µM | –
